Results: publication PMC10176470, “Engaging a Non-catalytic Cysteine Residue Drives Potent and Selective Inhibition of Caspase-6” (Journal of the American Chemical Society, 2023)

Key:
Assay in all cases: SILAC proteomics / in-gel fluorescence, competition of probe 13-t labeling by 3a
[1] = target: proteins of HEK293T cells transiently overexpressing caspase-6 (Homo sapiens, UniProt P06744)
[2] = target: T1, proteins of HEK293T cells transiently overexpressing caspase-6 (Homo sapiens, UniProt O00567)
T1 sequence (O00567 1-594): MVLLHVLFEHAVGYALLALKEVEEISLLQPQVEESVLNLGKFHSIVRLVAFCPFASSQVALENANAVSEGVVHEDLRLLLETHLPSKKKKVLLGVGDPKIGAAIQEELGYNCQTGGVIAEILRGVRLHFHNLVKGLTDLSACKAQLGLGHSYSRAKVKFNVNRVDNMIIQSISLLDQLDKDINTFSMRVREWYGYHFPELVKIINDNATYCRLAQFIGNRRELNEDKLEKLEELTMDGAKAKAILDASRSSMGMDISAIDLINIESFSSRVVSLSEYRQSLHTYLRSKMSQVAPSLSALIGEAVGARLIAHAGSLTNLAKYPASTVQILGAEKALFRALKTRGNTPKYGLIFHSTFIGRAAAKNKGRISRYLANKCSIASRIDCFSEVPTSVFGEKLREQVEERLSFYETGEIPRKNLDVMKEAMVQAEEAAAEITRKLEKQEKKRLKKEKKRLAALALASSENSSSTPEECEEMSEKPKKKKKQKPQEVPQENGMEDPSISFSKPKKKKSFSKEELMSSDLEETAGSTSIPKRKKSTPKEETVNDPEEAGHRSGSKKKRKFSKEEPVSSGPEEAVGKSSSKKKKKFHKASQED

[3] = target: T2, proteins of HEK293T cells transiently overexpressing caspase-6 (Homo sapiens, UniProt P14324)
T2 sequence (P14324 1-419): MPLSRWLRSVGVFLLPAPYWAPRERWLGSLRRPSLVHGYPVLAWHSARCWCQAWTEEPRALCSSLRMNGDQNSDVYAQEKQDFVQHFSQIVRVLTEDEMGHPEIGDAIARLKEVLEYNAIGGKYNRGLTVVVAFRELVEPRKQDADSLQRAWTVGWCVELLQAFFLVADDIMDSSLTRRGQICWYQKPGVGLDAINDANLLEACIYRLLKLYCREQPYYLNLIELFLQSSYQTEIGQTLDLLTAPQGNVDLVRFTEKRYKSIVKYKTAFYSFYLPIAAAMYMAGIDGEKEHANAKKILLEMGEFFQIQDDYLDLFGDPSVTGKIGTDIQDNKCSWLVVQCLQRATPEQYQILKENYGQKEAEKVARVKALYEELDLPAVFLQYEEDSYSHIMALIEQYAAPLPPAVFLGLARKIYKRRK

[4] = target: proteins of HEK293T cells transiently overexpressing caspase-6 (Homo sapiens, UniProt P12004); conditions: Comp; protein PCNA P12004
[5] = target: proteins of HEK293T cells transiently overexpressing caspase-6 (Homo sapiens, UniProt Q13347)
[6] = target: proteins of HEK293T cells transiently overexpressing caspase-6 (Homo sapiens, UniProt P62888); conditions: Comp; protein RPL30 P62888
[7] = target: proteins of HEK293T cells transiently overexpressing caspase-6 (Homo sapiens, UniProt P07437); conditions: Comp; protein TUBB P07437
[8] = target: proteins of HEK293T cells transiently overexpressing caspase-6 (Homo sapiens, UniProt P40939); conditions: Comp; protein HADHA P40939
[9] = target: T3, proteins of HEK293T cells transiently overexpressing caspase-6 (Homo sapiens, UniProt P25789)
T3 sequence (P25789 1-261): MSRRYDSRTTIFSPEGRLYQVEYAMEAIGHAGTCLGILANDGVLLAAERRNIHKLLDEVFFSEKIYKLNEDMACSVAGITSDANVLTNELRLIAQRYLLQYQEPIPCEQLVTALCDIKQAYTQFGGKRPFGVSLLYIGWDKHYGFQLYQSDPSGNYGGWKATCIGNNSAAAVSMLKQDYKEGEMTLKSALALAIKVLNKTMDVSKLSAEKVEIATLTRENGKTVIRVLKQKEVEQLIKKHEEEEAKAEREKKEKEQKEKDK

[10] = target: proteins of HEK293T cells transiently overexpressing caspase-6 (Homo sapiens, UniProt P46777); conditions: Comp; protein RPL5 P46777
[11] = target: proteins of HEK293T cells transiently overexpressing caspase-6 (Homo sapiens, UniProt P08238); conditions: Comp; protein HSP90AB1 P08238
[12] = protein GPI (P06744), Exp Comp, analysis C6, p 0.0078, 8 peptides
[13] = protein NOP56 (O00567), Exp Comp, analysis C6, p 0.1250, 4 peptides
[14] = protein FDPS (P14324), Exp Comp, analysis C6, p 0.2500, 4 peptides
[15] = protein EIF3I (Q13347), Exp Comp, analysis C6, p 0.0625, 5 peptides
[16] = protein PSMA4 (P25789), Exp Comp, analysis C6, p 0.0625, 5 peptides

Chain of proteins of HEK293T cells transiently overexpressing caspase-6 (Homo sapiens, UniProt Q13347) (Q13347 whole entry): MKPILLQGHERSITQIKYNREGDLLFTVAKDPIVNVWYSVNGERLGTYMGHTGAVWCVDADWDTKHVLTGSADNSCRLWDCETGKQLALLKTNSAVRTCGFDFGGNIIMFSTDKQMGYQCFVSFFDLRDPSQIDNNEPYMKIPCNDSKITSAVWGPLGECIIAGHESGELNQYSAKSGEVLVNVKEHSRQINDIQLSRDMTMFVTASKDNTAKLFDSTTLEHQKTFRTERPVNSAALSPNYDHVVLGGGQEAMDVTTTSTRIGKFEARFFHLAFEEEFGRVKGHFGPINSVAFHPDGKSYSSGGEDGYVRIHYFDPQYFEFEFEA
Chain of proteins of HEK293T cells transiently overexpressing caspase-6 (Homo sapiens, UniProt P40939) (P40939 37-763): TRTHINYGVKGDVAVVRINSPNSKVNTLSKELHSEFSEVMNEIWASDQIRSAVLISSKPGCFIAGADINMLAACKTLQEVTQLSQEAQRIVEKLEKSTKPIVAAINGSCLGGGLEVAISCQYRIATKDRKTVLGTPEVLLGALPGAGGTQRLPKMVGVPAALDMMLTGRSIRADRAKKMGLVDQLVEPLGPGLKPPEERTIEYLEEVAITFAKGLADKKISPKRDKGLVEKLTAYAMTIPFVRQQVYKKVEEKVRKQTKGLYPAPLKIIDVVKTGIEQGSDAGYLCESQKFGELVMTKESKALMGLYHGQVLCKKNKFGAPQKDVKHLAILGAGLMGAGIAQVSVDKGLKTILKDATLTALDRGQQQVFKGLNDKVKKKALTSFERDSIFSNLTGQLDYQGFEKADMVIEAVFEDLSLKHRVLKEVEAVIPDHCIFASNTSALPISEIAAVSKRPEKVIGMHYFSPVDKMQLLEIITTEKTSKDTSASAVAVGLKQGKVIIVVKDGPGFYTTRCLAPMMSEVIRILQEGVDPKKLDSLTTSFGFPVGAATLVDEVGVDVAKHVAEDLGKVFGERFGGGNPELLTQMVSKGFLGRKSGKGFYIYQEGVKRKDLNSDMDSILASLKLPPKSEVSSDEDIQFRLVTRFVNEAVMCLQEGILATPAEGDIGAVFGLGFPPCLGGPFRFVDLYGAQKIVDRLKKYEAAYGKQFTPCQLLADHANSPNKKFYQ
Chain of proteins of HEK293T cells transiently overexpressing caspase-6 (Homo sapiens, UniProt P07437) (P07437 whole entry): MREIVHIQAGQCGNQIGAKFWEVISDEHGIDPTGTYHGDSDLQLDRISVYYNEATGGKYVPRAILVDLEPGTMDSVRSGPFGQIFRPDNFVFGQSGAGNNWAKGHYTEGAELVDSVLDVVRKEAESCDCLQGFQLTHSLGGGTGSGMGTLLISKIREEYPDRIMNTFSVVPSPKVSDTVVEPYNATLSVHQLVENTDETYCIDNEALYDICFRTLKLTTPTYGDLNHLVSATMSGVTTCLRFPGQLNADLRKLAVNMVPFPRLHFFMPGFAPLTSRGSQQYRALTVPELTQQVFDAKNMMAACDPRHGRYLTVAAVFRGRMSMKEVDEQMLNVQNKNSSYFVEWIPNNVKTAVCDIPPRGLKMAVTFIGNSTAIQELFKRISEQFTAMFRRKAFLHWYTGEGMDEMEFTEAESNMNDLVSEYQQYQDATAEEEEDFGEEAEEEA
Chain of proteins of HEK293T cells transiently overexpressing caspase-6 (Homo sapiens, UniProt P12004) (P12004 whole entry): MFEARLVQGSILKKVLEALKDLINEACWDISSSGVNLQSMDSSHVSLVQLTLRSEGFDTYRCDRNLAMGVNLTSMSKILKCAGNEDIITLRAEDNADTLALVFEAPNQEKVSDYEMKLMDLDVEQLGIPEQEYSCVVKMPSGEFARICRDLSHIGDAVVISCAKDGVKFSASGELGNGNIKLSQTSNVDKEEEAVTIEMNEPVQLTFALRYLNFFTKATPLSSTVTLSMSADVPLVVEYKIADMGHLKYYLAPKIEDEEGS
Chain of proteins of HEK293T cells transiently overexpressing caspase-6 (Homo sapiens, UniProt P08238) (P08238 whole entry): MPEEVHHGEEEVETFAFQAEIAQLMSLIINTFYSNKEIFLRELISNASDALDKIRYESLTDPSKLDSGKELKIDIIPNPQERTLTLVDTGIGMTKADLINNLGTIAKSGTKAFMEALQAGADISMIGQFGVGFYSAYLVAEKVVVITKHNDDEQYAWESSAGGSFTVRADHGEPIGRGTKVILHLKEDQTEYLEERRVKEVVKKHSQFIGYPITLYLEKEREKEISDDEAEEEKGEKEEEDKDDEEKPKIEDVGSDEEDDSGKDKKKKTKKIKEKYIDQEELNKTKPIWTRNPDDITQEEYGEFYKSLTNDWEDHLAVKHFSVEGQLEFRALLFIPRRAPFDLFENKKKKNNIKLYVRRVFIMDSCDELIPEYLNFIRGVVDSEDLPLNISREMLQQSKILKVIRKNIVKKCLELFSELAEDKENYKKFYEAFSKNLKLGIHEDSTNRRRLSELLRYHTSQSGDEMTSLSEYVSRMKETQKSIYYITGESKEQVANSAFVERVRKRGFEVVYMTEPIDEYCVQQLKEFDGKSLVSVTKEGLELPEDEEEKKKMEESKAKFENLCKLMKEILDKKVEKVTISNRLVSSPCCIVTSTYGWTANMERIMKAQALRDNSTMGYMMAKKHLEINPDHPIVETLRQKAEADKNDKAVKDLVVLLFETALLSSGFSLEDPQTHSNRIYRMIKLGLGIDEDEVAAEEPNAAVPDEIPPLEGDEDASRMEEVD

`C=CS(=O)(=O)N1C[C@H](C(=O)Nc2ccc(OC(F)(F)F)cc2)C[C@@H](c2ccccc2)C1` [3a] was tested, and the enrich.exp.med ([1]; Comp, protein GPI P06744) was 1.157, the enrich.exp.med.lin [1, 12] was 2.229 and the enrich.exp.med.log2 [1, 12] was 1.157. It also gave an enrich.exp.med ([2]; Comp, protein NOP56 O00567) of 1.117, an enrich.exp.med.lin [2, 13] of 2.169 and an enrich.exp.med.log2 [2, 13] of 1.117. For the same molecule, the enrich.exp.med ([3]; Comp, protein FDPS P14324) was 1.087, the enrich.exp.med.lin [3, 14] was 2.124 and the enrich.exp.med.log2 [3, 14] was 1.087. For the same molecule, the enrich.exp.med [4] was 0.6316, the enrich.exp.med ([5]; Comp, protein EIF3I Q13347) was 1.022 and the enrich.exp.med.lin [5, 15] was 2.03. It also gave an enrich.exp.med.log2 [5, 15] of 1.022, an enrich.exp.med [6] of 0.6036 and an enrich.exp.med [7] of 0.8512. The enrich.exp.med [8] was 0.6753, the enrich.exp.med ([9]; Comp, protein PSMA4 P25789) was 0.9624 and the enrich.exp.med.lin [9, 16] was 1.949. For the same molecule, the enrich.exp.med.log2 [9, 16] was 0.9624, the enrich.exp.med [10] was 0.7402 and the enrich.exp.med [11] was 0.6024.
